Measured values published in paper PMC3325374 (Journal of Medicinal Chemistry, 2012).

Test system: MDR1-MDCK cell monolayers
Experiment: MDR1-MDCK monolayer permeability assay
Type: in vitro ADME
Conditions: judged from MDR1-MDCK efflux ratio

- P-gp mediated efflux (in words): subject to P-gp mediated efflux
Compound: N#CCNC(=O)[C@H](Cc1c[nH]cn1)NC(=O)OCc1ccccc1 [Compound 10]
